Assay results as given in ChEMBL document CHEMBL1201862, “PubChem BioAssay data set” (2004).
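In this assay, cells in 96-well plates receive the compound at five concentrations for 48 hours. Endpoints are linearly interpolated between the surrounding concentrations. GI50 = concentration required for 50% inhibition of growth.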 The source made the active and inactive calls. Rule as the data show it: active = GI50 up to about 1.1 µM and inactive = higher.

Legend:
Assay in all cases: DTP human tumour cell line panel, 48 h
CCRF-CEM = system: CCRF-CEM
HCT-116 = system: HCT-116
HL-60 = system: HL-60
HOP-62 = system: HOP-62
KM12 = system: KM12
LOX IMVI = system: LOX IMVI
NCI-H23 = system: NCI-H23
OVCAR-4 = system: OVCAR-4
RPMI-8226 = system: RPMI-8226
SF-295 = system: SF-295
SK-MEL-5 = system: SK-MEL-5
SNB-19 = system: SNB-19
UO-31 = system: UO-31
EKVX = system: EKVX
RXF 393 = system: RXF 393

SMILES | GI50 (CCRF-CEM) | GI50 (HCT-116) | GI50 (HL-60) | GI50 (HOP-62) | GI50 (KM12) | GI50 (LOX IMVI) | GI50 (NCI-H23) | GI50 (OVCAR-4) | GI50 (RPMI-8226) | GI50 (SF-295) | GI50 (SK-MEL-5) | GI50 (SNB-19) | GI50 (UO-31) | GI50 (EKVX) | GI50 (RXF 393)
Cn1c(O)c(C(=O)Nc2cccs2)c(=O)[nH]c1=S | 39 µM (inactive) | 13.4 µM (inactive) | 78.9 µM (inactive) | 17.4 µM (inactive) | 17.9 µM (inactive) | 15.7 µM (inactive) | 14.5 µM (inactive) | 22.5 µM (inactive) | 19.5 µM (inactive) | 15.5 µM (inactive) | 13.6 µM (inactive) | 28.9 µM (inactive) | 12.2 µM (inactive) | – | –
CC(=O)n1c(=O)c2cc3c(=O)n(-c4cccc(C#N)c4)c(=O)c3cc2c1=O | > 100 µM (inactive) | > 100 µM (inactive) | > 100 µM (inactive) | 45.5 µM (inactive) | > 100 µM (inactive) | > 100 µM (inactive) | > 100 µM (inactive) | > 100 µM (inactive) | – | 60.7 µM (inactive) | > 100 µM (inactive) | 67 µM (inactive) | > 100 µM (inactive) | > 100 µM (inactive) | > 100 µM (inactive)
O=C(O)CCSC(=O)Nc1ccc([N+](=O)[O-])cc1 | > 100 µM (inactive) | > 100 µM (inactive) | > 100 µM (inactive) | > 100 µM (inactive) | > 100 µM (inactive) | > 100 µM (inactive) | > 100 µM (inactive) | > 100 µM (inactive) | > 100 µM (inactive) | > 100 µM (inactive) | – | > 100 µM (inactive) | > 100 µM (inactive) | > 100 µM (inactive) | > 100 µM (inactive)
COC(=O)C(/C(=N/NC(N)=O)C(=O)Nc1c(C)cccc1C(C)(C)C)c1nc2ccc(Cl)cc2nc1O (stereo not given) | > 100 µM (inactive) | > 100 µM (inactive) | > 100 µM (inactive) | > 100 µM (inactive) | > 100 µM (inactive) | > 100 µM (inactive) | > 100 µM (inactive) | > 100 µM (inactive) | > 100 µM (inactive) | > 100 µM (inactive) | > 100 µM (inactive) | > 100 µM (inactive) | > 100 µM (inactive) | 75.5 µM (inactive) | > 100 µM (inactive)
Cc1nn(-c2ccccc2)c(-c2ccccc2[N+](=O)[O-])c1CC#N | > 100 µM (inactive) | – | 69.5 µM (inactive) | > 100 µM (inactive) | > 100 µM (inactive) | > 100 µM (inactive) | 87.7 µM (inactive) | > 100 µM (inactive) | 63.2 µM (inactive) | > 100 µM (inactive) | 7.87 µM (inactive) | > 100 µM (inactive) | 82.2 µM (inactive) | > 100 µM (inactive) | 45 µM (inactive)
Clc1ccc(-c2nnc(-c3nn(-c4ccccc4)c4nc5ccccc5nc34)o2)cc1 | 28.2 µM (inactive) | 35.9 µM (inactive) | 22.5 µM (inactive) | > 100 µM (inactive) | > 100 µM (inactive) | > 100 µM (inactive) | 42.4 µM (inactive) | 28 µM (inactive) | 24.7 µM (inactive) | > 100 µM (inactive) | 12.9 µM (inactive) | > 100 µM (inactive) | > 100 µM (inactive) | > 100 µM (inactive) | 93.3 µM (inactive)
C(=C\C(Sc1ccccc1)c1ccccc1)/NNC1=NN=C(c2ccccc2)C(c2ccccc2)N1 (stereo not given) | 10.2 µM (inactive) | 42.2 µM (inactive) | 15.2 µM (inactive) | 16.5 µM (inactive) | 58.3 µM (inactive) | 51.9 µM (inactive) | 31.2 µM (inactive) | 83 µM (inactive) | 16.4 µM (inactive) | 32.7 µM (inactive) | 45.9 µM (inactive) | 48.6 µM (inactive) | 18.8 µM (inactive) | 32.9 µM (inactive) | –
CS(=O)(=O)C1(Br)S(=O)(=O)OCCOS1(=O)=O | > 100 µM (inactive) | > 100 µM (inactive) | > 100 µM (inactive) | > 100 µM (inactive) | – | > 100 µM (inactive) | > 100 µM (inactive) | > 100 µM (inactive) | > 100 µM (inactive) | > 100 µM (inactive) | > 100 µM (inactive) | > 100 µM (inactive) | > 100 µM (inactive) | > 100 µM (inactive) | > 100 µM (inactive)
CCCCc1c2c(nc3c1CCC/C3=C\c1ccccc1)C(=O)CCC2 | 17.4 µM (inactive) | 20 µM (inactive) | 22.2 µM (inactive) | 20.9 µM (inactive) | 18.7 µM (inactive) | 17.6 µM (inactive) | 24.2 µM (inactive) | 28.4 µM (inactive) | 13.7 µM (inactive) | 21.2 µM (inactive) | 16.3 µM (inactive) | 20.1 µM (inactive) | 24.5 µM (inactive) | 19.1 µM (inactive) | 17 µM (inactive)
C1=CC(=P(c2ccccc2)(c2ccccc2)c2ccccc2)C=C1 | 3.42 µM (inactive) | – | 2.77 µM (inactive) | 18.4 µM (inactive) | 9.31 µM (inactive) | 6.5 µM (inactive) | 11.5 µM (inactive) | 13.9 µM (inactive) | 3.18 µM (inactive) | 15.1 µM (inactive) | 12.2 µM (inactive) | 4.67 µM (inactive) | 15.9 µM (inactive) | 24.2 µM (inactive) | 13.7 µM (inactive)
CCN(/N=C1\CC2C=CCN(C2)C(=O)Cc2c1[nH]c1ccccc21)S(=O)(=O)c1ccc(C)cc1 (stereo not given) | > 100 µM (inactive) | 85.9 µM (inactive) | 73.1 µM (inactive) | – | 69.8 µM (inactive) | > 100 µM (inactive) | 87.5 µM (inactive) | 51.8 µM (inactive) | 63.1 µM (inactive) | 71.1 µM (inactive) | 56.6 µM (inactive) | 81.8 µM (inactive) | 39.4 µM (inactive) | 40.3 µM (inactive) | –
C=C(c1ccccc1)c1cc2c(=O)[nH]ccc2n1C | 31.3 µM (inactive) | – | 16.3 µM (inactive) | 25 µM (inactive) | 34.4 µM (inactive) | 37.2 µM (inactive) | 30.1 µM (inactive) | 35.5 µM (inactive) | 24.7 µM (inactive) | 29.9 µM (inactive) | 26 µM (inactive) | 48 µM (inactive) | 18.5 µM (inactive) | 39.4 µM (inactive) | 19.3 µM (inactive)
CCc1ccccc1NC(=O)C1=C(C)NC(C)=C(C(=O)Nc2ccccc2CC)C1c1cccc([N+](=O)[O-])c1 | 12.1 µM (inactive) | – | 23.2 µM (inactive) | 38.3 µM (inactive) | 32.8 µM (inactive) | 87.9 µM (inactive) | 36.6 µM (inactive) | 7.85 µM (inactive) | 11.7 µM (inactive) | 47.4 µM (inactive) | 27.7 µM (inactive) | 59.4 µM (inactive) | 11.5 µM (inactive) | 34 µM (inactive) | 10.5 µM (inactive)
COc1ccc(C2ON(c3ccccn3)CC=C2C)cc1 (stereo not given) | > 100 µM (inactive) | – | > 100 µM (inactive) | > 100 µM (inactive) | > 100 µM (inactive) | > 100 µM (inactive) | 78.3 µM (inactive) | > 100 µM (inactive) | 60.1 µM (inactive) | > 100 µM (inactive) | > 100 µM (inactive) | > 100 µM (inactive) | 34.5 µM (inactive) | > 100 µM (inactive) | > 100 µM (inactive)
c1cncc(CSc2nc3ccccc3nc2-c2cccs2)c1 | 30.6 µM (inactive) | > 100 µM (inactive) | 13 µM (inactive) | 71.3 µM (inactive) | 48.6 µM (inactive) | > 100 µM (inactive) | > 100 µM (inactive) | 53.6 µM (inactive) | 32.8 µM (inactive) | > 100 µM (inactive) | > 100 µM (inactive) | 77.6 µM (inactive) | 36.4 µM (inactive) | 98.4 µM (inactive) | –
O=[N+]([O-])C1C2C=CC(C2)[C@H]1c1ccco1 (stereo not given in full) | > 100 µM (inactive) | > 100 µM (inactive) | > 100 µM (inactive) | > 100 µM (inactive) | > 100 µM (inactive) | > 100 µM (inactive) | 0.384 µM (active) | > 100 µM (inactive) | – | > 100 µM (inactive) | > 100 µM (inactive) | > 100 µM (inactive) | > 100 µM (inactive) | > 100 µM (inactive) | > 100 µM (inactive)
COc1ccc(-c2oc(/C=N/c3ccccc3)c([N+](=O)[O-])c2-c2ccc(OC)c(OC)c2)cc1OC | – | > 100 µM (inactive) | > 100 µM (inactive) | > 100 µM (inactive) | > 100 µM (inactive) | > 100 µM (inactive) | > 100 µM (inactive) | > 100 µM (inactive) | > 100 µM (inactive) | > 100 µM (inactive) | > 100 µM (inactive) | > 100 µM (inactive) | > 100 µM (inactive) | – | > 100 µM (inactive)
CO/N=C(/C(=O)Nc1c[n+](CC(=O)[O-])cs1)c1csc(N)n1 | > 100 µM (inactive) | > 100 µM (inactive) | > 100 µM (inactive) | – | > 100 µM (inactive) | > 100 µM (inactive) | > 100 µM (inactive) | – | > 100 µM (inactive) | > 100 µM (inactive) | > 100 µM (inactive) | > 100 µM (inactive) | > 100 µM (inactive) | > 100 µM (inactive) | –
N#CC(C(=O)C(=O)Nc1ccccc1)c1ccccc1 (stereo not given) | > 100 µM (inactive) | > 100 µM (inactive) | > 100 µM (inactive) | – | > 100 µM (inactive) | > 100 µM (inactive) | > 100 µM (inactive) | – | > 100 µM (inactive) | > 100 µM (inactive) | – | > 100 µM (inactive) | > 100 µM (inactive) | > 100 µM (inactive) | –
Cc1cc(Br)ccc1/N=N/C1C(=O)ON=C1c1ccccc1 (stereo not given) | – | 46.5 µM (inactive) | 32.1 µM (inactive) | > 100 µM (inactive) | > 100 µM (inactive) | 63.4 µM (inactive) | > 100 µM (inactive) | > 100 µM (inactive) | 28.4 µM (inactive) | > 100 µM (inactive) | 53.5 µM (inactive) | > 100 µM (inactive) | 46.9 µM (inactive) | 67 µM (inactive) | 52.4 µM (inactive)
